The text below walks through data of patent publication US6355665B1, “1H-4(5)-substituted imidazole derivatives, their preparation and their use as histamine H3 receptor ligands” (James Black Foundation Limited, priority 1997, dated 2002).

Test [1] deals with T1, Histamine H3 receptor (Cavia porcellus, UniProt Q9JI35). Briefly: Histamine H3 radioligand binding assay, guinea pig cortex ([3H]-R-α-methylhistamine). More on the design: The cortex was dissected, weighed and homogenised in ice-cold 20 mM Hepes-NaOH buffer; from tissue; host or cells: guinea pig cerebral cortex membranes. Particulars: guinea pig cortex membranes; [3H]-R-α-methylhistamine 0.1 nM; typical variance ±0.12 log units; read-out: pKI (binding assay) - cortex (converted). On the procedure: Histamine H3 Radioligand Binding Assay—Guinea Pig Cortex
Male Dunkin Hartley guinea pigs (200-300 g) were used. The whole brain was removed and immediately placed in ice-cold 20 mM Hepes-NaOH buffer (pH7.4 at 21±3° C.). The cortex was dissected, weighed and homogenised in ice-cold 20 mM Hepes-NaOH buffer (pH7.4 at 21±3° C.) (50 ml/guinea-pig cortex) using a polytron (Kinematica AG; PT-DA 3020/2TS, 3×3 s). The homogenate was centrifuged at 100×g for 5 min and the supernatants pooled and stored at 4° C. The pellets were rehomogenised in fresh ice-cold buffer (80 ml) and recentrifuged (100×g for 5 min). The supernatants were pooled and pellets rehomogenised and recentrifuged (100×g for 5 min). All supernatants were pooled and centrifuged at 39,800×g for 12 min at 4° C. The final pellet was resuspended in 20 mM Hepes-NaOH buffer (pH7.4 at 21±3° C.) to a tissue concentration of 7.5 mg.ml^−1, using a teflon-in-glass homogeniser.
Incubation Conditions and Data Analysis
These were essentially identical to those used for the guinea pig ileum myenteric plexus assay described above, except that the final assay concentration of [^3H]-R-α-methylhistamine was 0.1 nM. Typical variance in this assay is ±0.12 log units.

For test [2], the target named is T1, Histamine H3 receptor. Briefly: ileal longitudinal muscle, myenteric plexus functional assay (rightward shift of R-(α)-methylhistamine E/[A] curves, Schild). It is filed as cell-based. Particulars: guinea pig ileum longitudinal muscle myenteric plexus, electrically stimulated; antagonism of R-(α)-methylhistamine; typical variance ±0.15 log units; read-out: pKB (functional assay) - ileum (converted). The arrangement: the longitudinal muscle layer and adhering myenteric plexus was teased away; from tissue; host or cells: guinea pig ileal longitudinal muscle with myenteric plexus (organ bath). On the procedure: The biological activity of the compounds of the examples was measured using the ileal longitudinal muscle, myenteric plexus assay described by Paton and Aboo Zar (J. Physiol. 1968, 194, 13-33). Male Dunkin-Hartley guinea pigs (250-300 g) were employed. Briefly, a 50 cm portion of ileum proximal to the caecum was removed, after discarding the terminal 20 cm. Ileal segments (3 cm) were cleaned by passing Krebs-Henseleit buffer containing 3 μM mepyramine gently through the ileum using a Pasteur pipette (size: 13.8 cm length, 0.65 cm diameter). To avoid unnecessary damage to the tissue, Krebs-Henseleit buffer was passed through the ileal segment, while it was lying horizontally on a petri dish. Therefore, the ileum was not over-distended and the buffer flowed through with ease. Each segment was then passed over a Pasteur pipette and the longitudinal muscle layer and adhering myenteric plexus was teased away using moist cotton wool, by stroking tangentially away from the mesenteric attachment. The tissues were suspended in 20 ml organ baths containing Krebs-Henseleit buffer at 37±1° C. and gassed with 95% CO2/5% O2. The tissues were ligated to two parallel stainless steel wires, situated between two platinum electrodes (0.76 cm length, 0.06 cm diameter). All measurements were recorded isometrically (Grass FTO3 transducer). Following an initial loading tension of 1 g, the tissues were stimulated with electrical pulses at a frequency of 0.1 Hz and a pulse duration of 0.5 msec, as described by Kosterlitz & Watt (Br. J. Pharmacol. 1968, 266-276). Initially, the tissues were stimulated at supramaximal (1.3 fold times maximal) voltage for a period of 30 min and then the tissues were washed and re-stimulated. A “sighter dose” of the selective histamine H3-receptor agonist, R-(α)-methylhistamine (0.3 μM) (Arrang et al. Nature, 1987, 117-123), was administered. Upon generation of response, the “sighter dose” was removed from the tissues by “washout” (6 washes over 60 min) and during this period the electrical stimulation was switched off. The tissues were then re-stimulated and allowed to stabilise prior to the addition of drug treatments, which were allocated on a randomised block basis to the organ baths. Following the incubation period, a single cumulative E/[A] curve was obtained. The experimental E/[A] curve data was expressed as the percentage inhibition of the peak height of electrically-stimulated contraction. Antagonist affinity values were calculated from the degree of rightward shift of the R-(α)-methylhistamine E/[A] curves using Schild's methods (Arunlakshana & Schild Br. J. Pharmacol. 1959, 48-58). Typical variance in this assay is ±0.15 log units.

Test [3] concerns the target T1, Histamine H3 receptor. Briefly: Histamine H3 radioligand binding assay, guinea pig ileum ([3H]-R-α-methylhistamine). The arrangement: The cortex was dissected, weighed and homogenised in ice-cold 20 mM Hepes-NaOH buffer; from tissue; host or cells: guinea pig cerebral cortex membranes. Particulars: guinea pig ileum longitudinal muscle myenteric plexus membranes; [3H]-R-α-methylhistamine 3 nM; typical variance ±0.12 log units; read-out: pKI (binding assay) - ileum (converted). The method, then:
Histamine H3 Radioligand Binding Assay—Guinea Pig Ileum
Male Dunkin Hartley guinea pigs (200-300 g) were used. The small intestine was rapidly removed (cut ^˜5 cm from caecum and 5 cm from stomach) and placed in ice-cold 20 mM Hepes-NaOH buffer (pH7.4 at 21±3° C.). The tissue was cut into ^˜10 cm segments, flushed through with ice-cold 20 mM Hepes-NaOH buffer and placed in a beaker containing fresh buffer at 4° C. 10 cm segments of ileum were threaded onto a glass pipette and the longitudinal muscle myenteric plexus was peeled away from the circular muscle using damp cotton-wool. Longitudinal muscle myenteric plexus was immediately placed in ice-cold Viaspan® solution (^˜100 ml for tissue from 3 guinea pigs) and placed in the refrigerator for 24 hours.
Pre-soaked tissue was weighed and minced with scissors. The tissue was then homogenised in Viaspan® using a polytron (Kinematica AG; PT-DA 3020/2TS, 3×^˜1-2 s). 50 ml of 500 mM Tris HCl (pH6.9 at 21±3° C.) was added to the tissue and the mixture centrifuged at 39,800×g for 12 min at 4° C. The supernatant was discarded and rehomogenised in 100 ml ice-cold 20 mM Hepes-NaOH buffer (pH7.4 at 21±3° C.) using a teflon-in-glass homogeniser (setting 10; 3×). The homogenate was recentrifuged at 39,800×g and the pellet resuspended in 20 mM Hepes-NaOH buffer (pH7.4 at 21±3° C.), to a tissue concentration of 50 mg.ml^−1, using a polytron (Brinkman, PT10, 3×^˜1 s).
Guinea pig ileum longitudinal muscle myenteric plexus membranes (400 μl) were incubated for 165 min at 21±3° C. in a final volume of 500 μl with 20 mM Hepes-NaOH buffer containing [^3H]-R-α-methylhistamine (50 μl; 3 nM) and competing compound. Total and non-specific binding of [^3H]-R-α-methylhistamine were defined using 50 μl of buffer and 50 μl of 10 μM thioperamide, respectively. The assay was terminated by rapid filtration through Whatman GF/B filters, presoaked (2 hr) in 0.1% polyethyleneimine, using a Brandell Cell Harvester. The filters were washed (3×3 ml) with ice-cold 50 mM Tris-HCl (pH6.9 at 21±3° C.), transferred into scintillation vials, 5 ml liquid scintillation cocktail was added and after 4 hours the bound radioactivity was determined by counting (4 min) in a Beckman liquid scintillation counter.
Data are analysed using GraphPad prism and the general equation for a competition curve with variable Hill slope (nH). [formula]
X is the log concentration of competing compound,
Y is the binding obtained at each concentration of X,
pIC50 is the […] required to compete for half of the specific binding.
The IC50 is converted to the K1 using the Cheng Prusoff equation,
IC50 is the concentration of competitor required to compete for half the specific binding,
L is the radioligand concentration used,
KD is the equilibrium dissociation constant for the radioligand determined by saturation experiments.
Typical variance in this assay is ±0.12 log units.

T1 sequence (Q9JI35 whole entry): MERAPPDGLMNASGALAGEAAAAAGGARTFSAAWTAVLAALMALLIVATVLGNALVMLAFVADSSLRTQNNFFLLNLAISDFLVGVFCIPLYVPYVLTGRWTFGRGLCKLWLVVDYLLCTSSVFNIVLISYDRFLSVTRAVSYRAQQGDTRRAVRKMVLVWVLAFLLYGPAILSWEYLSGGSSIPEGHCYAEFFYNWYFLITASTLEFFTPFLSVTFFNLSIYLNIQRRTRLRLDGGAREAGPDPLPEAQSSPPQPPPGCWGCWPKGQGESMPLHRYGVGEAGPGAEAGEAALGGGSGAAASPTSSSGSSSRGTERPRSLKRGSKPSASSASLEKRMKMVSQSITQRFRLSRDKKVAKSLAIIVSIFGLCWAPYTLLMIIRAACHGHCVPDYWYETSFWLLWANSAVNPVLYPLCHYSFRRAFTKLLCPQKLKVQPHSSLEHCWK

Consider `O=S(=O)(CCCCc1c[nH]cn1)NCc1ccc(Cl)cc1` [Example 1, N-(4-Chlorobenzyl)-4-(1H-imidazol-4-yl)-1-butanesulfonamide], for which the Ki at Histamine H3 receptor [1] is 2.63 nM; on Histamine H3 receptor [3], 8.51 nM. For the same molecule, at Histamine H3 receptor [2], the Kb was 8.71 nM.

Consider `O=S(=O)(/C=C/CCc1c[nH]cn1)NCc1ccc(Cl)cc1` [Example 3, (E)-N-(4-Chlorobenzyl)-4-(1H-imidazol-4-yl)-1-but-1-enesulfonamide], for which the Ki at Histamine H3 receptor [1] is 2.75 nM; on Histamine H3 receptor [3], 10.2 nM. In addition, the Kb at Histamine H3 receptor [2] was 12.6 nM.

On to `O=S(=O)(CCCCCc1c[nH]cn1)NCc1ccc(Cl)cc1` [Example 5, N-(4-Chlorobenzyl)-5-(1H-imidazol-4-yl)-1-pentanesulfonamide], for which the Ki at Histamine H3 receptor [1] is 2.63 nM; at Histamine H3 receptor [3] it was 1.86 nM. The Kb on Histamine H3 receptor [2] is 3.47 nM.

Regarding `O=S(=O)(CC(O)CCCc1c[nH]cn1)NCc1ccc(Cl)cc1` (stereo not drawn) [Example 6, N-(4-Chlorobenzyl)-2-hydroxy-5-(1H-imidazol-4-yl)-1-pentanesulfonamide], the figures for the Ki at Histamine H3 receptor [1] and on Histamine H3 receptor [3] were 5.01 nM and 12.6 nM, respectively. In addition, the Kb on Histamine H3 receptor [2] is 16.2 nM.

As for `O=S(=O)(CC(O)CCCc1c[nH]cn1)NCCc1ccc(Cl)cc1` (stereo not drawn) [Example 12, N-(4-Chlorophenethyl)-2-hydroxy-5-(1H-imidazol-4-yl)-1-pentanesulfonamide], the figures for the Ki on Histamine H3 receptor [1] and at Histamine H3 receptor [3] were 14.1 nM and 60.3 nM, respectively. Besides, the Kb at Histamine H3 receptor [2] was 49 nM.

For `O=S(=O)(CCCCCc1c[nH]cn1)CCc1ccc(Cl)cc1` [Example 26, [5-(1H-Imidazol-4-yl)pentyl] 4-chlorophenethyl sulfone], the results for the Ki on Histamine H3 receptor [1] and on Histamine H3 receptor [3] were 4.47 nM and 10.2 nM, respectively. The Kb on Histamine H3 receptor [2] was 7.76 nM.

Turning to `O=S(=O)(CCCCCc1c[nH]cn1)Cc1ccc(Cl)cc1` [Example 27, [5-(1H-Imidazol-4-yl)pentyl] 4-chlorobenzyl sulfone], the Ki at Histamine H3 receptor [1] is 0.661 nM; at Histamine H3 receptor [3], 11.7 nM. Moreover, on Histamine H3 receptor [2], the Kb was 14.1 nM.
